Experiment: FUS-BBBO delivery of Evans Blue to the mouse brain under closed-loop feedback control (fluorescence imaging of brain slices)
Assay type: in vivo, Swiss mice
Details: for drug delivery area (average): area with fluorescence higher than 10 dB above background of brain tissue; for fluorescence intensity of the delivered Evans Blue, increase relative to the 0.5 dB group: brainstem ROI, 30 μL of 4% Evans Blue i.v. after FUS, 30 min after sonication
Protocol: 25 Swiss mice (8-10 weeks, ˜25 g body weight, female, Charles River Laboratory, Wilmington, MA, USA) were randomly assigned into five groups (n=5 for each group) to evaluate five different TCLs using the disclosed algorithm. Swiss mice (8-10 weeks, ˜25 g body weight, female, Charles River Laboratory, Wilmington, MA, USA) were housed in a room maintained at 22° C. and 55% relative humidity, with a 12-h/12-h light/dark cycle and access to standard laboratory chow and water. […] Four Swiss mice were selected to evaluate an existing closed-loop feedback control algorithm with the TCL defined based on the detection of sub-harmonics. During all experiments, mice were anesthetized with 1.5-2% isoflurane and stabilized using a stereotaxic apparatus (Kopf, Tujunga, CA, USA). A heating pad with a temperature kept at ˜38° C. was used to maintain the mouse's body temperature. Mice were prepared for FUS sonication by removing fur on top of the head with a depilatory cream (Nair, Church & Dwight Co., NJ, USA) and coupled to a water container using ultrasound gel. A catheter was placed into the tail vein for microbubbles and Evans blue injection.
A microbubble contrast agent (Definity, Lantheus Medical Imaging, North Billerica, MA) was diluted using sterile saline to a final concentration of approximately 8×10^8 microbubbles per mL. A bolus of diluted microbubble contrast agent (volume=30 μL) was injected intravenously into each mouse through a tail vein catheter. The injection was performed using a computer-controlled syringe pump (NE-1600; New Era Pump Systems Inc.). Microbubbles infusion was started 15 s before FUS sonication to allow microbubbles to flow through the tail vein catheter and reach the mouse brain. The infusion lasted until the end of sonication at a constant rate of 12.8 μL/min. All mice were treated by FUS with output pressure controlled in real-time using the disclosed PCD-based closed-loop feedback control algorithm. The treatment procedure followed a two-step process. A representative example of sonication sequence and detected cavitation level is illustrated in FIG. 20.
A baseline stable cavitation (SC) level was established for each mouse with dummy FUS sonication after injecting the microbubbles. FUS sonication was performed using a pulse repetition frequency of 2 Hz, a pulse length of 6.7 ms burst (i.e., duty cycle: 1.33%), and a sonication duration of 5 s. The output pressure of FUS was 0.2 MPa (all pressures reported were the peak negative pressures calibrated in water). This pressure was selected because it was the lowest pressure at which the microbubble cavitation signal was higher than the noise level without microbubble injection and lower than the pressures needed to induce BBB disruption. During the sonication by each FUS pulse, acoustic emission from microbubbles was recorded by the PCD transducer and processed by a Fast-Fourier transform (FFT) algorithm. SC level was calculated by summing the magnitude of the spectrum within a ±0.02 MHz bandwidth at the third harmonic (i.e., 4.5 MHz) of the FUS transducer. The third harmonic emission was chosen because it was at the center frequency of the PCD transducer. Ten PCD signals were acquired, and the average of SC levels calculated from these ten signals was used to define the baseline SC level.
After establishing the baseline SC level as described above, the mice were further subjected to FUS sonication using the FUS-BBBO with real-time feedback control disclosed herein. During FUS sonication with microbubbles infusion, cavitation was monitored by PCD in real-time, and a custom closed-loop feedback control algorithm was used to control the SC level to be at different TCLs defined to be 0.5 dB, 1 dB, 2 dB, 3 dB, or 4 dB above the baseline SC level. […]

In the case of Cc1cc(-c2ccc(/N=N/c3ccc4c(S(=O)(=O)O)cc(S(=O)(=O)O)c(N)c4c3O)c(C)c2)ccc1/N=N/c1ccc2c(S(=O)(=O)O)cc(S(=O)(=O)O)c(N)c2c1O [Evans Blue], the “drug delivery area (average)” value (TCL 0.5 dB) is reported as 9.6 mm^2, the “fluorescence intensity of the delivered Evans Blue, increase relative to the 0.5 dB group” value (TCL 1 dB above baseline SC level) is reported as 2.4 fold and the “fluorescence intensity of the delivered Evans Blue, increase relative to the 0.5 dB group” value (TCL 2 dB above baseline SC level) is reported as 5.3 fold. The “fluorescence intensity of the delivered Evans Blue, increase relative to the 0.5 dB group” value (TCL 3 dB above baseline SC level) was 8.2 fold, the “drug delivery area, increase as TCL was raised from 0.5 dB to 3 dB” value (TCL 3 dB versus 0.5 dB) was 11.7 fold and the “drug delivery area (average)” value (TCL 3 dB) was 112.8 mm^2. The “fluorescence intensity and drug delivery area with respect to the values at a TCL of 3 dB” value (TCL 4 dB) was “slightly decreased”.
